Measured values from patent US20040127492A1 (Pharmacia Corporation, priority 2002, published 2004).
pIC50: −log10 of the molar value. Where two headings read alike, the source gives them in different places.

Tests used:
MK-3 = MK-3 (Homo sapiens, UniProt Q16644); test: MK-3 inhibition IC50 (similar method to MK-2, with appropriate modifications); format: biochemical; settings: read-out: MK-3 Avg. IC50
MAPKAPK2 (MK-2) = MAPKAPK2 (MK-2) (Homo sapiens, UniProt P49137); test: Determination of MK-2 IC50 (HSP-peptide phosphorylation, anion exchange resin capture assay); format: biochemical
Method in brief: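 MAPKAPK2, preactivated by p38α with 0.25 mM ATP for 1 h at 30° C, used at 15 nM to phosphorylate HSP-peptide with 0.03 mM ATP plus [γ33P]ATP, pH 7.5, 2% DMSO, 30 min at 30° C. Labelled peptide counted after anion-exchange resin capture; IC50 from six ten-fold dilutions, triplicate.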

[1] = Table 2, pyrazolylpyrazole MK-2 inhibitors
[2] = Table 2, pyrazolylpyrazole MK-2 inhibitors, read-out: MK-2 Avg. IC50
[3] = Table 1, phenoxypyrazole MK-2 inhibitors
[4] = Table 1, phenoxypyrazole MK-2 inhibitors, read-out: MK-2 Avg, IC50
[5] = Table 5, other cyclic pyrazole MK-2 inhibiting compounds
[6] = Table 5, other cyclic pyrazole MK-2 inhibiting compounds, read-out: MK-2 Avg. IC50

Chain of MAPKAPK2 (MK-2) (P49137 whole entry, species assumed): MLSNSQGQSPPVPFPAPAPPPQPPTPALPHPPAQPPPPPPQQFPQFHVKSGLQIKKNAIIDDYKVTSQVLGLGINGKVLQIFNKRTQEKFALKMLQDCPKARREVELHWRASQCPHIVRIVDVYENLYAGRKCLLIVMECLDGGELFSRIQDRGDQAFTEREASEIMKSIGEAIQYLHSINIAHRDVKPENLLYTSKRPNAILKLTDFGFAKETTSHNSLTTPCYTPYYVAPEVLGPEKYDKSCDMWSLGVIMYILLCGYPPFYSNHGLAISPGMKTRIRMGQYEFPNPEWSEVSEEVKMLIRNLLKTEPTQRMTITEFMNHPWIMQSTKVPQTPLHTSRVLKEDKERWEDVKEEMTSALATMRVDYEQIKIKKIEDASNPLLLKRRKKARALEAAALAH
Chain of MK-3 (Q16644 whole entry, species assumed): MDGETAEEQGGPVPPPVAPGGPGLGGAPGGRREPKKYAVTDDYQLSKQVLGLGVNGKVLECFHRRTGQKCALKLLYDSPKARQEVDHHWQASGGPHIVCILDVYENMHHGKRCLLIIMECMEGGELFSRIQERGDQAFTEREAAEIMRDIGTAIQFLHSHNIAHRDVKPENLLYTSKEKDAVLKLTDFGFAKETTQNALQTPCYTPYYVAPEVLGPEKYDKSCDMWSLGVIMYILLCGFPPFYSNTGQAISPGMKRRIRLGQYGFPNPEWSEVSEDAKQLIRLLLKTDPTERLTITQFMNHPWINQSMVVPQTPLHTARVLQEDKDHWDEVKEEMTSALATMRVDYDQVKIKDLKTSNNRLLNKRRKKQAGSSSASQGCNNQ

CCOC(=O)c1nn(-c2ccccc2)c2c1CCc1c-2cnn1Cc1ccccc1 [Example 55]
pIC50 (MK-3; [1]): ≤ 3.70
pIC50 (MAPKAPK2 (MK-2); [2]): ≤ 3.70

O=C(O)c1nn(C2CCN(C(=O)OCc3ccccc3)CC2)c2c1CCc1c-2cnn1C(c1ccccc1)(c1ccccc1)c1ccccc1 [Example 19]
pIC50 (MK-3; [1]): ≤ 3.70
pIC50 (MAPKAPK2 (MK-2); [2]): 4.33

NCCCn1nc2c(c1C(=O)O)CCc1cc(O)c(-c3ccc([N+](=O)[O-])cc3)cc1-2 [Example 9]
pIC50 (MK-3; [3]): 3.98
pIC50 (MAPKAPK2 (MK-2); [4]): 5.31

O=C1NCCn2nc3c(c21)CCc1cnc(/C=C/c2cccc(O)c2)cc1-3 [Example 1]
pIC50 (MK-3; [5]): 5.44
pIC50 (MAPKAPK2 (MK-2); [6]): 7.68

C=CCC1Cc2c(C(N)=O)n[nH]c2-c2ccc(O)cc21 (stereo not drawn) [Example 56]
pIC50 (MK-3; [3]): < 3.70
pIC50 (MAPKAPK2 (MK-2); [4]): 3.86

NC(=O)c1ccc(-n2nc(C(N)=O)c3c2-c2cn[nH]c2CC3)cc1 [Example 24]
pIC50 (MK-3; [1]): ≤ 3.70
pIC50 (MAPKAPK2 (MK-2); [2]): 4.11

N#Cc1cccc(-c2cc3c(cn2)CCc2c-3nn(CCCN)c2C(=O)O)c1 [Example 8]
pIC50 (MK-3): 6.65
pIC50 (MAPKAPK2 (MK-2); read-out: MK-2 Avg. IC50): 7.52

C=CCSc1n[nH]c2c1-c1nn3c(c1CC2)C(=O)NCCC3 [Example 12]
pIC50 (MK-3; [1]): 4.25
pIC50 (MAPKAPK2 (MK-2); [2]): 4.97

CCOC(=O)c1c2c(nn1CCCN)-c1c(SC)n[nH]c1CC2 [Example 20]
pIC50 (MK-3; [1]): ≤ 3.70
pIC50 (MAPKAPK2 (MK-2); [2]): 4.26

O=C1NC(CO)Cn2nc3c(c21)CCc1cnc(-c2cnc4ccccc4c2)cc1-3 (stereo not drawn) [Example 9]
pIC50 (MK-3): 5.25
pIC50 (MAPKAPK2 (MK-2); read-out: MK-2 Avg. IC50): 7.50

NC(=O)c1[nH]nc2c1CCc1c-2cnn1-c1ccccc1 [Example 51]
pIC50 (MK-3; [1]): ≤ 3.70
pIC50 (MAPKAPK2 (MK-2); [2]): ≤ 3.70

CC1Cc2cc(O)ccc2-c2n[nH]c(C(=O)O)c21 (stereo not drawn) [Example 59]
pIC50 (MK-3; [3]): < 3.70
pIC50 (MAPKAPK2 (MK-2); [4]): 3.83

O=C(O)c1c2c(nn1CCCNCCc1ccc(-c3csc4ccccc34)cc1)-c1ccncc1CC2 [Example 60]
pIC50 (MK-3): 4.81
pIC50 (MAPKAPK2 (MK-2); read-out: MK-2 Avg. IC50): 6.24

NCCCn1nc2c(c1C(=O)O)CCc1cc(O)c(-c3ccccc3Cl)cc1-2 [Example 30]
pIC50 (MK-3; [3]): 4.22
pIC50 (MAPKAPK2 (MK-2); [4]): 4.53

O=C1NCCn2nc3c(c21)CCc1cnc(/C=C/c2ccc(C(F)(F)F)cc2)cc1-3 [Example 9]
pIC50 (MK-3; [5]): < 4.70
pIC50 (MAPKAPK2 (MK-2); [6]): 5.65

CCOCn1ncc2c1CCc1c-2n[nH]c1C(N)=O [Example 46]
pIC50 (MK-3; [1]): 3.84
pIC50 (MAPKAPK2 (MK-2); [2]): ≤ 3.70

CC1Cc2cc(O)ccc2-c2n[nH]c(C(N)=O)c21 (stereo not drawn) [Example 68]
pIC50 (MK-3; [3]): 3.71
pIC50 (MAPKAPK2 (MK-2); [4]): 3.76

Cn1nc(C(N)=O)c2c1-c1ccc(O)cc1CC2 [Example 65]
pIC50 (MK-3; [3]): < 3.70
pIC50 (MAPKAPK2 (MK-2); [4]): 3.80

NCCCn1nc2c(c1C(=O)O)CCc1[nH]nc(SCc3ccccc3)c1-2 [Example 6]
pIC50 (MK-3; [1]): 4.66
pIC50 (MAPKAPK2 (MK-2); [2]): 5.54

O=C1NCCn2nc3c(c21)CCc1cnc(N2CCSCC2)cc1-3 [Example 203]
pIC50 (MK-3): 5.48
pIC50 (MAPKAPK2 (MK-2); read-out: MK-2 Avg. IC50): 4.45

COc1cccc(/C=C/c2cc3c(cn2)CCc2c-3nn3c2C(=O)NCC3)c1 [Example 5]
pIC50 (MK-3; [5]): 4.93
pIC50 (MAPKAPK2 (MK-2); [6]): 6.48

COc1cc2c(cc1-c1ccc(F)c(F)c1)-c1nn(CCCNC(=O)OC(C)(C)C)c(C(=O)O)c1CC2 [Example 46]
pIC50 (MK-3; [3]): < 3.70
pIC50 (MAPKAPK2 (MK-2); [4]): 4.03

CCOC(=O)c1[nH]nc2c1CCc1c-2cnn1C [Example 50]
pIC50 (MK-3; [1]): ≤ 3.70
pIC50 (MAPKAPK2 (MK-2); [2]): ≤ 3.70

NCCCn1nc2c(c1C(=O)O)CCc1[nH]ncc1-2 [Example 2]
pIC50 (MK-3; [1]): 4.45
pIC50 (MAPKAPK2 (MK-2); [2]): 5.66

COc1cc2c(cc1-c1cccc(C#N)c1)-c1nn(CCCNC(=O)OC(C)(C)C)c(C(=O)O)c1CC2 [Example 38]
pIC50 (MK-3; [3]): < 3.70
pIC50 (MAPKAPK2 (MK-2); [4]): 4.25

NCCCn1nc2c(c1C(=O)O)CCc1cnccc1-2 [Example 64]
pIC50 (MK-3): 4.64
pIC50 (MAPKAPK2 (MK-2); read-out: MK-2 Avg. IC50): 6.21

COc1cc2c(cc1-c1ccncc1)-c1nn(CCCNC(=O)OC(C)(C)C)c(C(=O)O)c1CC2 [Example 67]
pIC50 (MK-3; [3]): < 3.70
pIC50 (MAPKAPK2 (MK-2); [4]): 3.78

COc1cccc(-c2cc3c(cn2)CCc2c-3nn(CCCN)c2C(=O)O)c1 [Example 14]
pIC50 (MK-3): 6.06
pIC50 (MAPKAPK2 (MK-2); read-out: MK-2 Avg. IC50): 7.25

COc1ccc2c(c1)CCc1c(C(=O)NCCCN(C)C)nn(-c3ccc(Cl)cc3)c1-2 [Example 161]
pIC50 (MK-3; [3]): < 3.70
pIC50 (MAPKAPK2 (MK-2); [4]): < 3.70

O=C(O)c1c2c(nn1CCCNCCCc1ccc(Br)cc1)-c1ccncc1CC2 [Example 38]
pIC50 (MK-3): 4.99
pIC50 (MAPKAPK2 (MK-2); read-out: MK-2 Avg. IC50): 6.66

NCCn1nc2c(c1C(=O)O)CCc1[nH]ncc1-2 [Example 4]
pIC50 (MK-3; [1]): 4.20
pIC50 (MAPKAPK2 (MK-2); [2]): 5.61

CCOC(=O)c1c2c(nn1CCCNCCc1ccsc1)-c1cn[nH]c1CC2 [Example 36]
pIC50 (MK-3; [1]): ≤ 3.70
pIC50 (MAPKAPK2 (MK-2); [2]): 3.88

O=C1NCCn2nc3c(c21)CCc1cnc(-c2ccc(O)cc2)cc1-3 [Example 19]
pIC50 (MK-3): 6.06
pIC50 (MAPKAPK2 (MK-2); read-out: MK-2 Avg. IC50): 7.06

NCCCn1nc2c(c1C(=O)O)CCc1cnc(Nc3ccccc3)cc1-2 [Example 16]
pIC50 (MK-3): 5.94
pIC50 (MAPKAPK2 (MK-2); read-out: MK-2 Avg. IC50): 7.13

CCOC(=O)c1nn(-c2ccc(S(N)(=O)=O)cc2)c2c1CCc1cc(OC)c(OC)cc1-2 [Example 174]
pIC50 (MK-3; [3]): < 3.70
pIC50 (MAPKAPK2 (MK-2); [4]): < 3.70

O=C(O)c1c2c(nn1CCCNCCc1ccc(-c3cccnc3)cc1)-c1ccncc1CC2 [Example 55]
pIC50 (MK-3): 4.95
pIC50 (MAPKAPK2 (MK-2); read-out: MK-2 Avg. IC50): 6.28

COc1ccc2c(c1)CCc1c(C(N)=O)nn(-c3ccc(S(N)(=O)=O)cc3)c1-2 [Example 179]
pIC50 (MK-3; [3]): < 3.70
pIC50 (MAPKAPK2 (MK-2); [4]): < 3.70

C=CCSc1n[nH]c2c1-c1nn(CCCN)c(C(=O)O)c1CC2 [Example 5]
pIC50 (MK-3; [1]): 4.38
pIC50 (MAPKAPK2 (MK-2); [2]): 5.55

C=CCn1nc2c(c1C(=O)O)CCc1cc(O)ccc1-2 [Example 31]
pIC50 (MK-3; [3]): < 3.70
pIC50 (MAPKAPK2 (MK-2); [4]): 4.45

COc1cc2c(cc1-c1ccc(C(C)(C)C)cc1)-c1nn(CCCNC(=O)OC(C)(C)C)c(C(=O)O)c1CC2 [Example 42]
pIC50 (MK-3; [3]): < 3.70
pIC50 (MAPKAPK2 (MK-2); [4]): 4.18

O=C1NCC(CCCNCCc2ccc(Cl)cc2)n2nc3c(c21)CCc1cnccc1-3 (stereo not drawn) [Example 178]
pIC50 (MK-3): 4.39
pIC50 (MAPKAPK2 (MK-2); read-out: MK-2 Avg. IC50): 4.79

O=C1NCCn2nc3c(c21)CCc1cnc(N2CCC(O)CC2)cc1-3 [Example 159]
pIC50 (MK-3): 4.64
pIC50 (MAPKAPK2 (MK-2); read-out: MK-2 Avg. IC50): 5.01

CCOC(=O)c1nn(-c2ccc(S(N)(=O)=O)cc2)c2c1CCc1cc(O)ccc1-2 [Example 176]
pIC50 (MK-3; [3]): < 3.70
pIC50 (MAPKAPK2 (MK-2); [4]): < 3.70

O=C1NCCCn2nc3c(c21)CCc1cc(O)c(-c2cccc([N+](=O)[O-])c2)cc1-3 [Example 3]
pIC50 (MK-3; [3]): < 3.70
pIC50 (MAPKAPK2 (MK-2); [4]): 5.83

Cn1nc2c(c1C(=O)O)CCc1cc(O)ccc1-2 [Example 34]
pIC50 (MK-3; [3]): < 3.70
pIC50 (MAPKAPK2 (MK-2); [4]): 4.35

O=C(O)c1c2c(nn1CCCO)-c1cn[nH]c1CC2 [Example 27]
pIC50 (MK-3; [1]): ≤ 3.70
pIC50 (MAPKAPK2 (MK-2); [2]): 3.99

CN1CCN(c2cc3c(cn2)CCc2c-3nn3c2C(=O)NCC3)CC1 [Example 245]
pIC50 (MK-3): 3.97
pIC50 (MAPKAPK2 (MK-2); read-out: MK-2 Avg. IC50): 4.01

CCOC(=O)c1c2c(nn1CC(F)(F)F)-c1cn[nH]c1CC2 [Example 72]
pIC50 (MK-3; [1]): ≤ 3.70
pIC50 (MAPKAPK2 (MK-2); [2]): ≤ 3.70

COc1cc2c(cc1-c1ccc([N+](=O)[O-])cc1)-c1nn(CCCNC(=O)OC(C)(C)C)c(C(=O)O)c1CC2 [Example 32]
pIC50 (MK-3; [3]): 3.94
pIC50 (MAPKAPK2 (MK-2); [4]): 4.43

Cc1ccc(CCNCCCn2nc3c(c2C(=O)O)CCc2cnccc2-3)cc1 [Example 72]
pIC50 (MK-3): 4.76
pIC50 (MAPKAPK2 (MK-2); read-out: MK-2 Avg. IC50): 6.05

NCCCn1nc2c(c1C(=O)O)CCc1cnc(-c3cccc(O)c3)cc1-2 [Example 4]
pIC50 (MK-3): 6.26
pIC50 (MAPKAPK2 (MK-2); read-out: MK-2 Avg. IC50): 7.71

CC(C)(C)OC(=O)NCCn1nc2c(c1C(=O)O)CCc1c-2cnn1C(c1ccccc1)(c1ccccc1)c1ccccc1 [Example 38]
pIC50 (MK-3; [1]): ≤ 3.70
pIC50 (MAPKAPK2 (MK-2); [2]): 3.86

NCCCn1nc2c(c1C(=O)O)CCc1cnc(-c3ccc(F)c(F)c3)cc1-2 [Example 17]
pIC50 (MK-3): 5.76
pIC50 (MAPKAPK2 (MK-2); read-out: MK-2 Avg. IC50): 7.10

O=C(O)c1c2c(nn1CCCNCCc1cccs1)-c1ccncc1CC2 [Example 41]
pIC50 (MK-3): 4.80
pIC50 (MAPKAPK2 (MK-2); read-out: MK-2 Avg. IC50): 6.57

CCOC(=O)c1c2c(nn1CCCNCCc1ccc(Br)cc1)-c1cn[nH]c1CC2 [Example 9]
pIC50 (MK-3; [1]): 4.17
pIC50 (MAPKAPK2 (MK-2); [2]): 5.07

CC1Cc2c(n[nH]c2C(=O)O)-c2ccc(O)cc21 (stereo not drawn) [Example 48]
pIC50 (MK-3; [3]): < 3.70
pIC50 (MAPKAPK2 (MK-2); [4]): 4.01

O=C(O)c1c2c(nn1CCCNCCC(c1ccccc1)c1ccccc1)-c1ccncc1CC2 [Example 80]
pIC50 (MK-3): 4.52
pIC50 (MAPKAPK2 (MK-2); read-out: MK-2 Avg. IC50): 5.93
